In publication doi:10.1101/2025.05.29.656781v1 (biorxiv, 2025):
Residue numbers refer to the chain shown, from its start.

How the values were obtained:
KV4.3/KChIP3 [1] = target: T1, KV4.3/KChIP3 (Homo sapiens, UniProt Q9Y2W7); assay: whole-cell patch clamp, per cent block; format: cell-based; details: read-out: % inhibition at 30 nM
T1 sequence (Q9Y2W7 1-256): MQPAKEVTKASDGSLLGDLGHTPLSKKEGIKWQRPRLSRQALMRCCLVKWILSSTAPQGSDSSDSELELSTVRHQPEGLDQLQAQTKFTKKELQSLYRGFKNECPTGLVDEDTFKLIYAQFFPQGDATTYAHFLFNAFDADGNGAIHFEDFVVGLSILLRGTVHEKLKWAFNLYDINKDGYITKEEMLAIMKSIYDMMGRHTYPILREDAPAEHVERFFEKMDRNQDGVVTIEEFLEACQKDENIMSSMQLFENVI
T1 sequence (Q9UK17 1-655 partner): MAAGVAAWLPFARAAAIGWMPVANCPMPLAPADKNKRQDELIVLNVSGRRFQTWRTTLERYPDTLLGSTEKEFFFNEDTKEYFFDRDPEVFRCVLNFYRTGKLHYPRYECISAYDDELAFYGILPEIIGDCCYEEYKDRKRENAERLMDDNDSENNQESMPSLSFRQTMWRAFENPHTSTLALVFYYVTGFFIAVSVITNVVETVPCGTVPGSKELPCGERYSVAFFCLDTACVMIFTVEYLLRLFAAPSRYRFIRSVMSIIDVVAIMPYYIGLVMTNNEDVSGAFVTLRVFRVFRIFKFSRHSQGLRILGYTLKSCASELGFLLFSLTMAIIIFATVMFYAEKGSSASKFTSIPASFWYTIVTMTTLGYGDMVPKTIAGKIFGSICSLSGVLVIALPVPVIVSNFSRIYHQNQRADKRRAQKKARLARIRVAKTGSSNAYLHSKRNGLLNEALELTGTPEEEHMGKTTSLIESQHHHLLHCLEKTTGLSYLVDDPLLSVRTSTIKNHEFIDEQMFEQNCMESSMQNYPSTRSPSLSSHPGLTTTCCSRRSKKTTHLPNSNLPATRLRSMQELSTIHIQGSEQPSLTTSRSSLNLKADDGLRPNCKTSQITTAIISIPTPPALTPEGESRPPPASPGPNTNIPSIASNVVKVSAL

KV4.3/KChIP3 [2] = target: T2, KV4.3/KChIP3 (Homo sapiens, UniProt Q9Y2W7, Y130A); assay: whole-cell patch clamp, per cent block; format: cell-based; details: read-out: % inhibition at 30 nM
T2 sequence (Q9Y2W7 1-256 Y130A): T1 sequence (Q9Y2W7 1-256) with Y130A
T2 sequence (Q9UK17 1-655 partner): T1 sequence (Q9UK17 1-655 partner)

KV4.3/KChIP3 [3] = target: T1, KV4.3/KChIP3; assay: whole-cell patch clamp, peak current at +[…] mV; format: cell-based
KChIP3 = target: T3, KChIP3 (Homo sapiens, UniProt Q9Y2W7); assay: tryptophan fluorescence quenching; format: binding
T3 sequence (Q9Y2W7 1-256): T1 sequence (Q9Y2W7 1-256)

KV4.3/KChIP3 [4] = target: T4, KV4.3/KChIP3 (Homo sapiens, UniProt Q9Y2W7, Y118A); assay: whole-cell patch clamp, per cent block; format: cell-based; details: read-out: % inhibition at 30 nM
T4 sequence (Q9Y2W7 1-256 Y118A): T1 sequence (Q9Y2W7 1-256) with Y118A
T4 sequence (Q9UK17 1-655 partner): T1 sequence (Q9UK17 1-655 partner)

KV4.3/KChIP3 [5] = target: T5, KV4.3/KChIP3 (Homo sapiens, UniProt Q9Y2W7, K166A); assay: whole-cell patch clamp, per cent block; format: cell-based; details: read-out: % inhibition at 30 nM
T5 sequence (Q9Y2W7 1-256 K166A): T1 sequence (Q9Y2W7 1-256) with K166A
T5 sequence (Q9UK17 1-655 partner): T1 sequence (Q9UK17 1-655 partner)

inhibition at 0.03 µM (KV4.3/KChIP3 [1]): 23.2 ± 2.7%
inhibition at 0.03 µM (KV4.3/KChIP3 [2]): 9.7 ± 2.5%
IC50 (KV4.3/KChIP3 [3]): 30 nM
Kd (KChIP3): 230 ± 20 nM
inhibition at 0.03 µM (KV4.3/KChIP3 [4]): 17 ± 3.6%
inhibition at 0.03 µM (KV4.3/KChIP3 [5]): 9 ± 2.5%
Compound: O=C(Cc1cccc(-c2ccccc2)c1)Nc1cc(Cl)ccc1C(=O)O [compound 1, 2-(2-([1,1’-biphenyl]-3-yl)acetamido)-4-chlorobenzoic acid]
